From patent US20090182058A1, “Novel Chalcone Derivatives With Antimitotic Activity” (priority 2006, published 2009) come the findings set out here.

The subject of one series is K562 cells. Nature of the series: Cycle test: blocking in the G2/M phase evaluated by flow cytometry. As to conditions: for G2/M inhibition in %: 24 hours, 10 μM, cells blocked in G2/M phase; for G2/M cycle blocking, dose-response (FIG. 1): concentration of the order of one micromolar. It is filed as cell-based, human. The method, then: THE CYCLE TEST CORRESPONDS TO THE ANALYSIS OF THE BLOCKING IN THE G2/M PHASE OF A LINE OF HUMAN LEUKEMIC CELLS AS EVALUATED BY FLOW CYTOMETRY.
The k562 cells are incubated for 24 hours in the absence or in the presence of compounds according to the invention and/or reference compounds such as vincristine. In a first phase, the compounds are used at a concentration of 10 μM, whereby dose-response type studies may be carried out secondarily. After 24 hours the cells are exposed to propidium iodide, a DNA intercalating agent, and analyzed in flow cytometry. The results are expressed as a percentage of the cells blocked in the G2/M phase of the cell cycle.
On the technique in general: A flow cytometer gives signals particle by particle.

The test system of another series is CEM. The series can be described thus: MTT test (in vitro cytotoxicity). It counts as cell-based. The following applies: Homo sapiens, CCRF-CEM, 72 hours. As for the experimental part:
(§1) The MMT test is a metabolic test used for evaluating the inhibition of proliferation of tumoral lines by a compound according to the invention. Several representative tumoral lines of different tumoral types such as breast cancer, colon cancer, otorhinolaryngological tumors, lung cancer, are incubated in a 96-well plate at variable concentrations of a compound according to the invention, for 72 hours and MTT is then added for a period of 1 hour. The MTT is a substrate of mitochondrial enzymes which is degraded in insoluble formazan blue. The crystals are then re-solubilized in isopropanol-HCl 0.1N and the plates are analyzed on an ELISA plate reader. Relative survival is calculated relatively to cells which have not been exposed to the compound according to the invention. The IC50 or inhibiting concentration 50 is the concentration value of the investigated compound according to the invention which induces a 50% reduction of proliferation relatively to the control.
Background: Tetrazolium assays rely on reduction of a dye to a coloured formazan, in cell work by metabolically active cells.

In a further series the test system is HCT 116. The series can be described thus: MTT test (in vitro cytotoxicity). It counts as cell-based. As to conditions: Homo sapiens, 72 hours. As for the experimental part:
as §1

Another series concerns HNO 150. The series can be described thus: MTT test (in vitro cytotoxicity). It is filed as cell-based. The following applies: 72 hours. As for the experimental part: as §1
Another series has as its system K562. Nature of the series: MTT test (in vitro cytotoxicity). It counts as cell-based. The following applies: Homo sapiens, 72 hours. As for the experimental part: as §1
For the next series, the system named is L1210. Nature of the series: MTT test (in vitro cytotoxicity). It counts as cell-based. As to conditions: Mus musculus, 72 hours. As for the experimental part: as §1
For the next series, the system named is MCF7. The series can be described thus: MTT test (in vitro cytotoxicity). It counts as cell-based. The following applies: Homo sapiens, 72 hours. As for the experimental part:
as §1

Another series deals with Messa. Nature of the series: MTT test (in vitro cytotoxicity). It is filed as cell-based. As to conditions: Homo sapiens, MES-SA, 72 hours. As for the experimental part: as §1
The test system of the next series is N2A. The series can be described thus: MTT test (in vitro cytotoxicity). It is filed as cell-based. The following applies: Mus musculus, 72 hours. As for the experimental part:
as §1

The subject of the next series is NIH 3T3. Nature of the series: MTT test (in vitro cytotoxicity). As to conditions: Mus musculus, NIH3T3, 72 hours. It is filed as cell-based. The method, then:
as §1

A further series has as its system RL. Nature of the series: MTT test (in vitro cytotoxicity). It counts as cell-based. The following applies: Homo sapiens, 72 hours. The method, then:
as §1

In the next series the test system is SW48. The series can be described thus: MTT test (in vitro cytotoxicity). It counts as cell-based. The following applies: Homo sapiens, 72 hours. As for the experimental part:
as §1

A word on the IC50: it is the midpoint of a concentration-inhibition curve. Low readings indicate greater potency, high ones weaker potency. Turning to `COc1cccc(OC)c1/C=C/C(=O)c1c(OC)cccc1OC` [Compound A, reference compound], the “G2/M inhibition in %” value in the series with K562 cells is 78%. Also, the “G2/M cycle blocking, dose-response (FIG. 1)” value (“G2/M cycle blocking” below) in the series with K562 cells is on record as “no activity”. Besides, the IC50 with CEM was found to be 6 µM; in the series on HCT 116 it was 9 µM; in the series on HNO 150, 62 µM; in the series with K562, 80 µM; in the series on L1210, 34 µM; with MCF7, 75 µM. Further, the IC50 in the series with Messa is 10 µM; in the series on N2A, 55 µM; in the series on NIH 3T3, 60 µM; with RL, 40 µM; in the series with SW48, 10 µM.
For orientation: melting point means the temperature, or range, at which the solid turns liquid. `COc1cc(OC)c(/C=C/C(=O)c2c(OC)cc(OC)cc2OC)c(OC)c1` [Example 2, 2,2′,4,4′,6,6′-hexamethoxychalcone] showed a melting point of 150 °C. For the same compound, in the series with K562 cells, the “G2/M inhibition in %” value is 86% and the “G2/M cycle blocking” value is given as “significant G2/M cycle blocking”. In the series on CEM, this compound gave a 50% inhibitory concentration (IC50) of 1.9 µM. Moreover, it took 1 µM to reach half-maximal inhibition in the series on HCT 116 (IC50). The compound further had an IC50 in the series with HNO 150 of 10 µM. For the same compound, in the series with K562, the IC50 was 50 µM. The IC50 in the series with L1210 is 8.5 µM. In the series on MCF7, this compound yielded an IC50 of 52 µM. In the series on Messa, this compound had a 50% inhibitory concentration (IC50) of 2.2 µM. 4 µM corresponded to half-maximal inhibition in the series with N2A (IC50). The compound also displayed an IC50 in the series on NIH 3T3 of 30 µM. This compound came in with an IC50 in the series on RL of 0.9 µM. In the series with SW48, this compound yielded an IC50 of 0.8 µM.
`COc1ccc(/C=C/C(=O)c2c(OC)cc(OC)cc2OC)c(OC)c1` [Example 16, 2,2′,4,4′,6′-pentamethoxychalcone] had a melting point of 105 °C.
Still for that read-out and setting: to `COc1ccc(C(=O)/C=C/c2ccc(OC)c(OC)c2OC)c(O)c1` [Example 22, 2′-hydroxy-2,3,4,4′-tetramethoxychalcone] belongs 152 °C; to `COc1ccc(/C=C/C(=O)c2c(OC)cccc2OC)c(OC)c1OC` [Example 11, 2,2′,3,4,6′-pentamethoxychalcone], 129 °C.
Still for that read-out and setting: in the case of `COc1cc(OC)c(C(=O)/C=C/c2c(OC)cccc2OC)c(OC)c1` [Example 18, 2,2′,4′,6,6′-pentamethoxychalcone] it was 164 °C.
As to `COc1ccc(C(=O)/C=C/c2c(OC)cc(OC)cc2OC)c(OC)c1` [Example 3, 2,2′,4,4′,6-pentamethoxychalcone], the melting point is 162 °C. Also, in the series with K562 cells, the “G2/M inhibition in %” value came to 86%.
Regarding `COc1cc(OC)c(/C=C/C(=O)c2c(OC)cccc2OC)c(OC)c1` [Example 1, 2,2′,4,6,6′-pentamethoxychalcone], the “G2/M inhibition in %” value in the series with K562 cells amounted to 84%. In addition, the “G2/M cycle blocking” value in the series on K562 cells is “significant G2/M cycle blocking”. Further, the IC50 worked out at 0.65 µM in the series with CEM; 0.45 µM in the series with HCT 116; 1.3 µM with HNO 150; 50 µM with K562; 7 µM with L1210; 60 µM in the series with MCF7. Besides, the IC50 was 1 µM in the series on Messa; 2.2 µM in the series on N2A; 30 µM with NIH 3T3; 0.8 µM in the series with RL; 0.25 µM in the series with SW48.
As for `COc1ccc(C(=O)/C=C/c2c(OC)cc(OC)cc2OC)c(O)c1` [Example 20, 2′-hydroxy-2,4,4′,6-tetramethoxychalcone], the melting point is 167 °C.
Still for that read-out and setting: to `COc1cc(/C=C/C(=O)c2c(OC)cccc2OC)cc(OC)c1OC` [Example 13, 2′,3,4,5,6′-pentamethoxychalcone] belongs 136 °C; to `CCOc1cc(OCC)c(/C=C/C(=O)c2c(OCC)cc(OCC)cc2OCC)c(OCC)c1` [Example 10, 2,2′,4,4′,6,6′-hexaethoxychalcone], 160 °C.
The same measure, in the same setting: to `COc1ccc(C(=O)/C=C/c2cc(OC)c(OC)cc2OC)c(O)c1` [Example 19, 2′-hydroxy-2,4,4′,5-tetramethoxychalcone] belongs 170 °C.
On to `COc1cccc(OC)c1C(=O)/C=C/c1c(C)cc(C)cc1C` [Example 15, 2′,6′-dimethoxy-2,4,6-trimethylchalcone], for which the melting point amounted to 126 °C.
On the same count and under the same terms, in the case of `CCOc1cccc(OCC)c1C(=O)/C=C/c1c(OC)cc(OC)cc1OC` [Example 7, 2′,6′-diethoxy-2,4,6-trimethoxychalcone] it was 102 °C; in that of `COc1cc(OC)c(/C=C/C(=O)c2c(OC)cc(N)cc2OC)c(OC)c1` [Example 9, 4′-amino-2,2′,4,6,6′-pentamethoxychalcone], 188 °C; in that of `COc1ccc(C(=O)/C=C/c2cc(OC)c(OC)c(OC)c2)c(O)c1` [Example 21, 2′-hydroxy-3,4,4′,5-tetramethoxychalcone], 110 °C.
On the same count and under the same terms, in the case of `COc1cc(OC)c(OC)cc1/C=C/C(=O)c1c(OC)cccc1OC` [Example 12, 2,2′,4,5,6′-pentamethoxychalcone] it was 143 °C; in that of `CCOc1cc(OCC)c(/C=C/C(=O)c2c(OC)cccc2OC)c(OCC)c1` [Example 8, 2′,6′-dimethoxy-2,4,6-triethoxychalcone], 154 °C; in that of `COc1cccc(OC)c1C(=O)/C=C/c1c(OC)c(F)c(OC)c(F)c1OC` [Example 14, 3,5-difluoro-2,2′,4,6,6′-pentamethoxychalcone], 108 °C.
